Assay results reported in article PMC12662248 (ADMET & DMPK, 2025).
Entries after “also recorded” stand apart in the source; their conditions may differ. Like-named read-outs stand apart in the source and are kept apart here.

How the values were obtained:
[1] = tested on: plateable rat hepatocytes; test: Metabolite identification in plateable rat hepatocytes; format: in vitro ADME; details: 10 μM metoprolol, 72 hours
Protocol: (§1) Cryopreserved rat, dog, monkey and human hepatocytes were thawed by immersing vials in a pre-warmed 37 °C water bath. The cell pellets were then transferred to thawing medium and centrifuged to isolate viable cells. Then, hepatocytes were diluted to 0.7 million cells mL^-1 and seeded into collagen-coated 48-well plates (0.2 mL per well) in duplicate. After 6 hours of attachment, the plating medium was replaced with incubation medium containing 1 % Matrigel™. […] Reactions were quenched at 72 hours with cold acetonitrile containing 0.1 % formic acid, and supernatants were dried under nitrogen gas. The residues were reconstituted in acetonitrile/water (1:9 volume ratio) with 0.1 % formic acid and analysed LC-HRMS. The M7 metabolite was isolated, purified, and concentrated via a mass spectrometry switching valve, followed by sample reconstitution, and subsequent analysis on LC-HRMS.
(§2) The maximum injection time was limited to 50 ms.
(§3) Hepatocyte viability data was expressed as mean±SD.

[2] = tested on: plateable dog hepatocytes; test: Metabolite identification in plateable dog hepatocytes; format: in vitro ADME; details: 10 μM metoprolol, 72 hours
Protocol: as §1, §2, §3

recombinant 2D6 enzymes [3] = target: T1, recombinant 2D6 enzymes (Homo sapiens, UniProt P10635); details: 60 min, 1 μM
T1 sequence (P10635 whole entry): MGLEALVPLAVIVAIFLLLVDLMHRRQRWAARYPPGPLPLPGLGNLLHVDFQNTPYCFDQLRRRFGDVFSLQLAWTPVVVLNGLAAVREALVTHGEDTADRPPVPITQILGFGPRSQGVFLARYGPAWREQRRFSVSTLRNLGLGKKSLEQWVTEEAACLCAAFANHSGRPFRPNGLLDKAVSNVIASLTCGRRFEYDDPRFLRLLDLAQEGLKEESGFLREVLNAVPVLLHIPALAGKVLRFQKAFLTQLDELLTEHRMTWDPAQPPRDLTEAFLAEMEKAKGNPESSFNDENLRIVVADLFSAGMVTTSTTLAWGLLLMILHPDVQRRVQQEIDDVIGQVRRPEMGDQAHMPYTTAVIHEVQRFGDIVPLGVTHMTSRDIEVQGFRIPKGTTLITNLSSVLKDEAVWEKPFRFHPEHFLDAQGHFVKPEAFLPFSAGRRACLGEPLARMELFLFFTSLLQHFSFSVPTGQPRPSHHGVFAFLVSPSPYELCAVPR
Protocol: (§5) Human recombinant cytochrome 2D6 enzymes were diluted to 50 pmol mL^-1 in 50 mM phosphate buffer. […] Reactions were initiated by adding NADPH (final concentration: 1 mM), and aliquots were collected at 60 min. Samples were quenched with cold acetonitrile containing 0.1 % formic acid, centrifuged (12,000g, 15 min, 4 °C), then supernatants were dried, reconstituted, centrifuged (12,000g, 15 min, 4 °C), and subjected to an analysis on LC-HRMS..
(§6) Qualitative LC-HRMS analysis was conducted using an Ultimate 3000 pump (ThermoFisher, Germany) and a Q-Exactive Plus spectrometer. The mobile phase A was distilled water containing 0.1 % formic acid and the mobile phase B was acetonitrile containing 0.1 % formic acid. The liquid chromatography (LC) gradient spanned 22 min: 0 to 1.0 minute at 5 % B; 1.0 to 6.0 min, 5 to 15 % B; 6.0 to 14.0 mi, 15 to 25 % B; 14.0 to 16.0 min, 25 to 90 % B; 16.0 to 18.0 min, 90 to 95 % B; 18.0 to 20.0 min, 95 to 5 % B; and 20.0 to 22.0 min at 5 % B (flow rate: 0.3 mL min^-1). MS parameters included: spray voltage: 3.8 kV, capillary temperature: 320 °C, heater temperatures: 350 °C, sheath gas: 2.76 MPa, auxiliary nitrogen pressures: 0.7 MPa and tube lens voltage: 10 eV. The full scan Q1 resolution was set to 70,000, and the automatic gain control (AGC) target value was set to 5×10^5 intensity. The maximum injection time was limited to 50 ms. The dd-MS^2 resolution was set at 17,500, with the AGC target set at 5×10^4. External calibration was performed, yielding a deviation of less than 5.0 ppm. Data was processed using Xcalibur 4.1.31.9 software (ThermoFisher, Germany; https://www.thermofisher.com/order/catalog/product/OPTON-30965).
(§7) LC-HRMS raw data was extracted with Xcalibur, and metabolites were identified using Compound Discoverer 3.0 (ThermoFisher, Germany; https://www.thermofisher.com/order/catalog/product/OPTON-31061) by comparing fragment patterns between parent compounds, metabolites, and standards.

[4] = tested on: plateable monkey hepatocytes; test: Metabolite identification in plateable monkey hepatocytes; format: in vitro ADME; details: 10 μM metoprolol, 72 hours
Protocol: as §1, §2, §3

[5] = tested on: plateable human hepatocytes; test: Metabolite identification in plateable human hepatocytes; format: in vitro ADME; details: 10 μM metoprolol, 72 hours
Protocol: as §1, §2, §3

[6] = tested on: plateable rat hepatocytes; test: Plateable hepatocytes cytotoxicity (CellTiter-Glo ATP assay), rat; format: cell-based; details: 48 hours; for cytotoxicity in rat hepatocytes (words): 0 to 500 μM
Protocol: (§4) Cryopreserved plateable rat and human hepatocytes were thawed by immersing vials in a pre-warmed 37 °C water bath. The cell pellets were then transferred to thawing medium and centrifuged to isolate viable cells. […] Prior to the measurement, the cell culture plate was equilibrated to ambient temperature. Subsequently, 100 μL of CellTiter-Glo® reagent was dispensed into each well, followed by orbital shaking (5 min) to ensure complete cell lysis. After a 10-minute stabilization at room temperature, luminescence signals were quantified using an envision® multilabel plate reader.

[7] = tested on: plateable human hepatocytes; test: Plateable hepatocytes cytotoxicity (CellTiter-Glo ATP assay), human; format: cell-based; details: 0 to 500 μM, 48 hours, regardless of ABT co-treatment
Protocol: as §4

[8] = tested on: plateable human hepatocytes; test: Plateable hepatocytes stability (metoprolol depletion); format: in vitro ADME
Protocol: Cryopreserved human hepatocytes were thawed by immersing vials in a pre-warmed 37 °C water bath. The cell pellets were then transferred to thawing medium and centrifuged to isolate viable cells. […] Aliquots were collected at 0, 2, 4, 8, 24, 48 and 72 hours, and reactions were quenched with cold acetonitrile/methanol (1:1, v/v) containing labetalol (100 ng mL^-1). After centrifugation (12,000g, 15 min, 4 °C), supernatants were analysed via LC-30AD-API5500 (LC-MS/MS, SCIEX, USA) for semiquantitative assessment. […] Hepatocyte viability data was expressed as mean±SD.

[9] = tested on: plateable human hepatocytes; details: cited from earlier work
recombinant 2D6 enzymes [10] = target: T1, recombinant 2D6 enzymes; test: Metabolite identification in recombinant cytochrome 2D6 enzymes; details: human recombinant 2D6 enzymes, 1 μM metoprolol, 60 min
Protocol: as §5, §6, §7

COCCc1ccc(OCC(O)CN)cc1 (centres unmarked) [M18]
Relative peak area, plateable hepatocytes, R [1]: 0.1% | Relative peak area, plateable hepatocytes, D [2]: 5.8% | Relative peak area, 2D6, H (recombinant 2D6 enzymes [3]): 6.4%

NCC(O)COc1ccc(CCO)cc1 (centres unmarked) [M3]
Relative peak area, plateable hepatocytes, D [2]: 0.7% | Relative peak area, plateable hepatocytes, Mk [4]: 0.1% | Relative peak area, 2D6, H (recombinant 2D6 enzymes [3]): 1.6%

COCC(O)c1ccc(OCC(O)CNC(C)C)cc1 (stereo not drawn) [M10, α-hydroxy-metoprolol]
Relative peak area, plateable hepatocytes, R [1]: 24.4% | Relative peak area, plateable hepatocytes, D [2]: 9.4% | Relative peak area, plateable hepatocytes, Mk [4]: 5.6% | Relative peak area, plateable hepatocytes, H [5]: 2.7% | Relative peak area, 2D6, H (recombinant 2D6 enzymes [3]): 20.1%

CC(C)NCC(O)COc1ccc(CCO)cc1 (centres unmarked) [M13, O-desmethyl-metoprolol]
Relative peak area, plateable hepatocytes, R [1]: 3.8% | Relative peak area, plateable hepatocytes, D [2]: 20.5% | Relative peak area, plateable hepatocytes, Mk [4]: 0.1% | Relative peak area, plateable hepatocytes, H [5]: 6.0% | Relative peak area, 2D6, H (recombinant 2D6 enzymes [3]): 22.8%

CC(C)NCC(O)COc1ccc(C(=O)O)cc1 (centres unmarked) [M9]
Relative peak area, plateable hepatocytes, R [1]: 0.4% | Relative peak area, plateable hepatocytes, Mk [4]: 0.2% | Relative peak area, 2D6, H (recombinant 2D6 enzymes [3]): 1.7%

COCCc1ccc(OCC(O)CNC(C)C)cc1 (centres unmarked) [metoprolol, Metoprolol]
cytotoxicity in rat hepatocytes (words) ([6]; without ABT): weak cytotoxicity; also recorded: weak hepatotoxicity | cytotoxicity in rat hepatocytes (words) ([6]; without ABT, listed as Metoprolol): cytotoxic only at a concentration of 500 μM | effect of ABT pre-treatment on metoprolol cytotoxicity ([6]; rat hepatocytes, 500 μM metoprolol with 50 μM ABT): reversed the cytotoxic effect | reductions in cell viability ([6]; rat hepatocytes, 500 μM metoprolol, without ABT): > 30% | cytotoxicity in human hepatocytes (words) [7]: No significant reduction in cell viability; also recorded: no significant hepatotoxicity | cytotoxicity in human hepatocytes (words) ([7]; listed as Metoprolol): no observable cytotoxicity | in vivo CLint ([8]; extrapolated from plateable human hepatocyte CLint): 1.59 ± 0.31 mL/min/kg | in vitro intrinsic clearance (CLint) ([8]; plateable human hepatocytes, 1 μM, 72-hour incubation): 0.56±0.12 μL min^-1 per million cells | in vivo clearance ([9]; correlating with plateable human hepatocyte clearance): 1.4 mL/min/kg | clearance in hepatocytes ([9]; previously reported): 4.28 μL min^-1 per million cells | clearance in plateable human hepatocytes ([9]; previously reported): 2.2 ± 0.7 μL min^-1 per million cells

CC(C)NCC(O)COc1ccc(CC(=O)O)cc1 (centres unmarked) [M17, metoprolol acid]
Relative peak area, plateable hepatocytes, R [1]: 57.2% | Relative peak area, plateable hepatocytes, D [2]: 19.9% | Relative peak area, plateable hepatocytes, Mk [4]: 82.6% | Relative peak area, plateable hepatocytes, H [5]: 14.6% | Relative peak area, 2D6, H (recombinant 2D6 enzymes [10]): 18.3%
